From paper PMC2375326, “In vitro evaluation of amino acid prodrugs of novel antitumour 2-(4-amino-3-methylphenyl)benzothiazoles” (British Journal of Cancer, 2002)

How the values were obtained:
MDA-MB-231/ATCC = assay: NCI in vitro cytotoxicity assay (SRB), MDA-MB-231/ATCC; type: cell-based; details: Homo sapiens, 48 h exposure, sulforhodamine B assay, mean graph, read-out: Log10 GI50 (MDA-MB-231/ATCC) (converted)
Description: (§1) Cell culture and drug application procedures have been described previously ([Boyd and Paull, 1995]). Briefly, cell lines were inoculated into a series of 96-well microtiter plates, with varied seeding densities depending on growth characteristics of each cell line. Following a 24 h drug free incubation, test agents were added at five 10-fold dilutions with a maximum concentration of 100 μM. Cellular protein levels were determined after 48 h drug exposure by sulphorhodamine B colorimetry.

SR = assay: NCI in vitro cytotoxicity assay (SRB), SR; type: cell-based; details: Homo sapiens, 48 h exposure, sulforhodamine B assay, mean graph, read-out: Log10 GI50 (SR) (converted)
Description: as §1

OVCAR-5 = assay: NCI in vitro cytotoxicity assay (SRB), OVCAR-5; type: cell-based; details: Homo sapiens, 48 h exposure, sulforhodamine B assay, mean graph, read-out: Log10 GI50 (OVCAR-5) (converted)
Description: as §1

SF-268 = assay: NCI in vitro cytotoxicity assay (SRB), SF-268; type: cell-based; details: Homo sapiens, 48 h exposure, sulforhodamine B assay, mean graph, read-out: Log10 GI50 (SF-268) (converted)
Description: as §1

DU-145 = assay: NCI in vitro cytotoxicity assay (SRB), DU-145; type: cell-based; details: Homo sapiens, 48 h exposure, sulforhodamine B assay, mean graph, read-out: Log10 GI50 (DU-145) (converted)
Description: as §1

COLO 205 = assay: NCI in vitro cytotoxicity assay (SRB), COLO 205; type: cell-based; details: Homo sapiens, 48 h exposure, sulforhodamine B assay, mean graph, read-out: Log10 GI50 (COLO 205) (converted)
Description: as §1

ACHN = assay: NCI in vitro cytotoxicity assay (SRB), ACHN; type: cell-based; details: Homo sapiens, 48 h exposure, sulforhodamine B assay, mean graph, read-out: Log10 GI50 (ACHN) (converted)
Description: as §1

SK-MEL-2 = assay: NCI in vitro cytotoxicity assay (SRB), SK-MEL-2; type: cell-based; details: Homo sapiens, 48 h exposure, sulforhodamine B assay, mean graph, read-out: Log10 GI50 (SK-MEL-2) (converted)
Description: as §1

[1] = tested on: CYP1A1 activity (EROD) in MCF-7 cells; assay: Induction of EROD activity in lysates of treated MCF-7 cells; type: cell-based, human; details: lysates of MCF-7 cells treated with 1 μM, 24 h; negligible activity in untreated lysates; mean of three, s.d. <10%
Description: A sensitive and rapid fluorometric assay was used to measure EROD activity ([Burke et al, 1994]). Incubation mixtures (total 1 ml) consisted of 100 mM Tris-HCl (pH 7.4), 50 μM MgCl2, 100 μM 7-ethoxyresorufin and 100 μl cell homogenate. Homogenates were prepared following treatment of cells for 24 h with compounds 1, 2, 2a, 2b, 3, 3a, 3b, 4, 4a and 4b or vehicle alone and protein content determined (n=3). Thus induction of ethoxyresorufin O-deethylation by agents under study, catalysed by CYP1A1 activity, could be determined. Alternatively, microsomes expressing recombinant CYP1A1 (0.1 mg ml^−1) provided the enzyme source for EROD catalysis, in the presence or absence of drug, in order to determine inhibition of CYP1A1 activity by compounds 1, 2, 2a, 2b, 3, 3a, 3b, 4, 4a and 4b. Incubation mixtures were pre-incubated for 5 min at 37°C before initiation of reaction by addition of NADPH (500 μM). Following further incubations at 37°C (30 min for cell homogenates, 15 min for CYP1A1 microsomes), reactions were terminated by addition of 3 ml ice-cold acetonitrile. Reaction mixtures were centrifuged (1400 r.p.m., 10 min) before analyses of supernatants. Fluorescence was read on a Perkin-Elmer LS-5 luminescence spectrometer (excitation, 530 nm; emission 585 nm). Estimation of resorufin reaction product (pmoles mg^−1 protein, pmoles 100 μg^−1 microsomes), as a measure of CYP1A1 activity, was determined following performance of a resorufin standard curve.

SK-MEL-5 = assay: NCI in vitro cytotoxicity assay (SRB), SK-MEL-5; type: cell-based; details: Homo sapiens, 48 h exposure, sulforhodamine B assay, mean graph, read-out: Log10 GI50 (SK-MEL-5) (converted)
Description: as §1

SNB-19 = assay: NCI in vitro cytotoxicity assay (SRB), SNB-19; type: cell-based; details: Homo sapiens, 48 h exposure, sulforhodamine B assay, mean graph, read-out: Log10 GI50 (SNB-19) (converted)
Description: as §1

IGROV1 = assay: NCI in vitro cytotoxicity assay (SRB), IGROV1; type: cell-based; details: Homo sapiens, IGROV-1; 48 h exposure, sulforhodamine B assay, mean graph; read-out: Log10 GI50 (IGROV1) (converted)
Description: as §1

U251 = assay: NCI in vitro cytotoxicity assay (SRB), U251; type: cell-based; details: Homo sapiens, U-251; 48 h exposure, sulforhodamine B assay, mean graph; read-out: Log10 GI50 (U251) (converted)
Description: as §1

MOLT-4 = assay: NCI in vitro cytotoxicity assay (SRB), MOLT-4; type: cell-based; details: Homo sapiens, 48 h exposure, sulforhodamine B assay, mean graph, read-out: Log10 GI50 (MOLT-4) (converted)
Description: as §1

SNB-75 = assay: NCI in vitro cytotoxicity assay (SRB), SNB-75; type: cell-based; details: Homo sapiens, 48 h exposure, sulforhodamine B assay, mean graph, read-out: Log10 GI50 (SNB-75) (converted)
Description: as §1

T-47D = assay: NCI in vitro cytotoxicity assay (SRB), T-47D; type: cell-based; details: Homo sapiens, T47D; 48 h exposure, sulforhodamine B assay, mean graph; read-out: Log10 GI50 (T-47D) (converted)
Description: as §1

LOX IMVI = assay: NCI in vitro cytotoxicity assay (SRB), LOX IMVI; type: cell-based; details: Homo sapiens, 48 h exposure, sulforhodamine B assay, mean graph, read-out: Log10 GI50 (LOX IMVI) (converted)
Description: as §1

HS 578T = assay: NCI in vitro cytotoxicity assay (SRB), HS 578T; type: cell-based; details: Homo sapiens, 48 h exposure, sulforhodamine B assay, mean graph, read-out: Log10 GI50 (HS 578T) (converted)
Description: as §1

M14 = assay: NCI in vitro cytotoxicity assay (SRB), M14; type: cell-based; details: Homo sapiens, 48 h exposure, sulforhodamine B assay, mean graph, read-out: Log10 GI50 (M14) (converted)
Description: as §1

NCI-H322M = assay: NCI in vitro cytotoxicity assay (SRB), NCI-H322M; type: cell-based; details: Homo sapiens, 48 h exposure, sulforhodamine B assay, mean graph, read-out: Log10 GI50 (NCI-H322M) (converted)
Description: as §1

SMILES	GI50 (MDA-MB-231/ATCC) [µM]	GI50 (SR) [µM]	GI50 (OVCAR-5) [µM]	GI50 (SF-268) [µM]	GI50 (DU-145) [µM]	GI50 (COLO 205) [µM]	GI50 (ACHN) [µM]	GI50 (SK-MEL-2) [µM]	Induction EROD activity [1]	GI50 (SK-MEL-5) [µM]	GI50 (SNB-19) [µM]	GI50 (IGROV1) [µM]	GI50 (U251) [µM]	GI50 (MOLT-4) [µM]	GI50 (SNB-75) [µM]	GI50 (T-47D) [µM]	GI50 (LOX IMVI) [µM]	GI50 (HS 578T) [µM]	GI50 (M14) [µM]	GI50 (NCI-H322M) [µM]
Cc1cc(-c2nc3cc(F)ccc3s2)ccc1N [Compound 2, 2-(4-Amino-3-methylphenyl)-5-fluorobenzothiazole]	17.4	< 0.01	0.0107	58.9	95.5	66.1	30.2	> 100	36.64 nM resorufin mg^-1 protein	> 100	26.3	< 0.01	41.7	> 100	17	< 0.01	> 100	46.8	33.9	11
Cc1cc(-c2nc3cc(F)ccc3s2)ccc1NC(=O)[C@@H](N)CCCCN [Compound 2b]	3.55	0.562	0.126	6.76	16.2	3.31	6.03	2.51	35.56 nM resorufin mg^-1 protein	15.5	13.5	< 0.01	2.14	1	1.62	< 0.01	2	3.63	2.14	3.09
